Experimental data as given in patent publication US5395932A, “2,3-,4-,5-,6-,7-,8-,9- and/or 10-substituted dibenzoxazepine compounds, pharmaceutical compositions and methods of use” (G. D. Searle & Co., priority 1993, dated 1995).
Structures can show the parent of a compound that is named as a salt.

Legend:
[1] = Writhing Assay (PBQ-induced writhing, analgesia); format: in vivo, Charles River male albino mice; settings: Mus musculus, po; intragastric, 30 mg per kilogram, 25 minutes before PBQ i.p.; writhes ≤ one-half median of saline control; read-out: WRITHING ASSAY, number of mice out of 9 or 10 in which test compound produced analgesia (converted)
Experimental: The phrase "ED50 dose" as used herein means that dose of a compound or drug which produced a biological effect, such as producing analgesia, in 50% of the animals to which the compound or drug was administered. The Writhing Assay is one of the most widely-used experimental procedures for measuring the analgesic activity of different narcotic and nonnarcotic analgesic agents, and involves the continuous, chemically-induced pain of visceral origin to an animal, such as a mouse or rat. [Gyires et al., Arch. int. Pharmacodyn, 267, 131-140 (1984); […] al., Fed. Proc., 15, 494 (1956); Koster et al., Fed. Proc., 18, 412 (1959); and Witken et al., J. Pharmacol. exp. Ther., 133, 400-408 (1961).] Chemicals which may be used to induce this pain include phenylbenzoquinone (PBQ) and acetic acid. As a result of the chemical irritation to the animal, a characteristic stretching and writhing of the animal (dorsiflexion of the animal's back, extension of its hindlimbs and the strong contraction of its abdominal musculature) will generally occur. […] Drugs which reduce the number of writhes of the animal appear to restore the normal nociceptive threshold of the animal. […] Charles River male albino mice, weighing 20 to 30 grams were used in this assay. Twenty-five minutes after intragastric administration to nine or ten mice of 30 mg per kilogram of body weight of a compound of the present invention ("test compound"), […] per 10 g of body weight of a 0.025% w/v solution of PBQ was injected intraperitoneally into each mouse. Ten mice which were given saline in place of a test compound of the invention were used as a control group. Five minutes later, each mouse was individually placed into a glass beaker for observation, and the number of writhes occurring during the following ten-minute period was counted. A test compound was considered to have produced analgesia in a mouse if, in accordance with the conditions set forth above, and under the test criteria employed for this assay, after the administration of 30 mg per kilogram of body weight of a compound of the present invention to the mouse, the number of writhes elicited by a mouse injected with PBQ was equal to, or less than, one-half the median number of writhes recorded for the saline-treated control group of mice that day, as described by Taber in "Predictive Value of Analgesic Assays in Mice and Rats," Advances in Biochemical Psychopharmacology, 8, 191 (1974). The results for the particular compounds of the present invention analyzed in this assay, and discussed in the examples identified below which correspond thereto, are presented in Table 1 hereinbelow as fractions under the heading "WRITHING ASSAY." The fractions indicate the number of mice out of nine or ten in which a test compound produced analgesia. The standard initial screening dose of a test compound employed in this assay was 30 milligrams per […] of body weight. If this initial screening dose of the test compound produced analgesia in seven of nine or ten mice, then the effect of additional doses of the test compound on the writhing response was evaluated, and then the ED50 dose was generally calculated. (The slopes of the dose-response curves for all test compounds analyzed were compared as described by Tallarida and Murray, Manual of Pharmacologic Calculations, Page 11 (Springer Verlag, New York, 1981)). All ED50 doses calculated are also presented below as whole numbers in Table 1, under the heading "WRITHING ASSAY."

[2] = molecular target: T1, prostaglandin E2-induced contractions of segments of guinea pig ileum (Cavia porcellus, UniProt A0A286XHJ6); experiment: Prostaglandin (PGE) Antagonism Assay (guinea pig ileum); format: cell-based, male albino guinea pigs; settings: estimated from 3 micromolar (dose ratio ≥2) or Schild plot (dose ratio ≥5); 37° C.; read-out: PGE ANTAGONISM IN GUINEA PIG ILEUM (pA2) (converted)
T1 construct: Segments of ileum about 2 cm long were then cut and mounted in a 10-mL tissue bath; from tissue; host or cells: guinea pig ileum segments
T1 sequence (A0A286XHJ6 1-405): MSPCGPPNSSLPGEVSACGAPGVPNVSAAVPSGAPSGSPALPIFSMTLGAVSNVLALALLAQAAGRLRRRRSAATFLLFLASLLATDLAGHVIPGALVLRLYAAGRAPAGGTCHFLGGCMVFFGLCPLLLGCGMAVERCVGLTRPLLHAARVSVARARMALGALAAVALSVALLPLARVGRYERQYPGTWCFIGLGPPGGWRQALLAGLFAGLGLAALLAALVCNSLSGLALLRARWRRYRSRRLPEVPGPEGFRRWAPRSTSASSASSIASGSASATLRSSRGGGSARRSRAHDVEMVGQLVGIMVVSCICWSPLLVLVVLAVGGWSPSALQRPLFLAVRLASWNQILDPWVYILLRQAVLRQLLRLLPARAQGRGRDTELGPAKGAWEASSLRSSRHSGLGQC
Text: The phrase "EC50 concentration" as used herein means that concentration of a compound or drug which is necessary to elicit a 50% maximal biological response and, thus, which is necessary to elicit a 50% reduction in the contractions of guinea pig ileum segments in a prostaglandin antagonism assay. (b) Prostaglandin (PGE) Antagonism Assay In order to determine the effectiveness of several of the compounds of the present invention ("test compounds") as prostaglandin E2 antagonists,a prostaglandin antagonism assay was conducted, as described below, to determine the ability of these compounds to inhibit prostaglandin E2 -induced contractions of segments of guinea pig ileum. […] Male albino guinea pigs weighing 200 to 500 grams were sacrificed by cervical dislocation. The ilea were then quickly removed from the guinea pigs and placed in a modified Tyrode solution, a solution which is known to those skilled in the art, containing one-half of the usual amount of magnesium ions. Segments of ileum about 2 cm long were then cut and mounted in a 10-mL tissue bath containing the modified Tyrode solution. The solution was maintained at 37° C. and aerated with a gaseous mixture of 95% oxygen and 5% carbon dioxide. Data for a control prostaglandin E2 dose response curve plotting concentration of prostaglandin E2 versus the intensity of contractions, detected isotonically, was then obtained by experimentally adjusting the dose of the prostaglandin E2 being injected into the tissue bath, in a manner known by those of skill in the art. Solutions or suspensions containing an initial concentration (3 micromolar) of a test compound in modified Tyrode solution ("test solutions/suspensions") were then separately substituted for the control bath solution. Each test solution/suspension was then kept in constant contact with the ileum tissue, except for brief periods to drain the bath in preparation for rinsing with fresh test solution/suspension. A second prostaglandin E2 dose response curve was then generated for prostaglandin E2 in the presence of a test compound. A dose ratio of EC50 doses was then calculated from the results of each test in a manner known by those of skill in the art. A test compound was determined to be "active" if the initial concentration used yielded at least a two-fold shift (dose ratio greater than or equal to 2) in the dose response curve for prostaglandin E2. […] The compounds of the present invention which were tested in this assay, and for which results are presented in Table 1, correspond to the particular examples specified in Table 1.

SMILES	responders at 30 mg/kg [1] [%]	Kb [2] [nM]
O=C(NCc1ccncc1)c1coc(CN2Cc3ccccc3Oc3ccc(Cl)cc32)n1 [Example 11, 2-[(8-chlorodibenz[b,f][1,4]oxazepin-10(11H)yl)methyl]-N-(4-pyridinylmethyl)-4-oxazolecarboxamide, monohydrochloride]	90	25.1
O=C(NCCc1ccncc1)c1coc(CN2Cc3ccccc3Oc3ccc(Cl)cc32)n1 [Example 14, 2-[(8-chlorodibenz[b,f][1,4]oxazepin-10(11H)yl)methyl]-N-[2-(4-pyridinyl)ethyl]-4-oxazolecarboxamide, hydrochloride, acetate]	60	15.8
O=C(NCc1cccnc1)c1csc(N2Cc3ccccc3Oc3ccc(Cl)cc32)n1 [Example 37, 2-(8-Chlorodibenz[b,f][1,4]oxazepin-10(11H)-yl)-N-(3-pyridinylmethyl)-4-thiazolecarboxamide, hydrochloride]	10	1000
O=C(Nc1ccncc1)c1csc(N2Cc3ccccc3Oc3ccc(Cl)cc32)n1 [Example 28, 2-(8-Chlorodibenz[b,f][1,4]oxazepin-10(11H)-yl)-N-4-pyridinyl-4-thiazolecarboxamide, hydrochloride]	100	3160
O=C(NCc1csc(N2Cc3ccccc3Oc3ccc(Cl)cc32)n1)c1ccncc1 [Example 36, N-[[2-(8-Chlorodibenz[b,f][1,4]oxazepin-10(11H)-yl)-4-thiazolyl]methyl]-4-pyridinecarboxamide, hydrochloride]	60	631
